Experimental data published in patent US20210380606A1, “5-AZAINDAZOLE DERIVATIVES AS ADENOSINE RECEPTOR ANTAGONISTS” (Merck Patent GmbH, priority 2018, published 2021).
Read-outs that look alike come from different tables or passages of the source.

Tests used:
human A2A receptors = target: T1, human A2A receptors (Homo sapiens, UniProt P29274); experiment: Functional human A2A receptor activity, recombinant HEK293 cells, cAMP (HTRF); type: cell-based
T1 construct: expressed in transfected cells; host or cells: HEK293
Outline: (§1)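 15 min incubation → HTRF cAMP reagents added → cellular cAMP read on plate reader. cAMP serves as adenosine receptor second messenger.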

human A2B receptors = target: T2, human A2B receptors (Homo sapiens, UniProt P29275); experiment: Functional human A2B receptor activity, recombinant HEK293 cells, cAMP (HTRF); type: cell-based
T2 construct: expressed in transfected cells; host or cells: HEK293
T2 sequence (P29275 1-332): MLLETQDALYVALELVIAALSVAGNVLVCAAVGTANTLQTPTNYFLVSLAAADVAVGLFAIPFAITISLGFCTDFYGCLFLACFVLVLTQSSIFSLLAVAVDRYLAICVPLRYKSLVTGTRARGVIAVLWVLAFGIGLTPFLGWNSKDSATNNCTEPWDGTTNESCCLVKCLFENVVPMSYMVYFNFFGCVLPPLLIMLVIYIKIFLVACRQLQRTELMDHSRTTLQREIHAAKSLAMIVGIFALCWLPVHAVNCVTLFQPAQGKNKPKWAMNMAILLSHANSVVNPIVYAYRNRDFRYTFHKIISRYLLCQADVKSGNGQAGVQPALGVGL
Outline: as §1

T1 sequence (P29274 whole entry): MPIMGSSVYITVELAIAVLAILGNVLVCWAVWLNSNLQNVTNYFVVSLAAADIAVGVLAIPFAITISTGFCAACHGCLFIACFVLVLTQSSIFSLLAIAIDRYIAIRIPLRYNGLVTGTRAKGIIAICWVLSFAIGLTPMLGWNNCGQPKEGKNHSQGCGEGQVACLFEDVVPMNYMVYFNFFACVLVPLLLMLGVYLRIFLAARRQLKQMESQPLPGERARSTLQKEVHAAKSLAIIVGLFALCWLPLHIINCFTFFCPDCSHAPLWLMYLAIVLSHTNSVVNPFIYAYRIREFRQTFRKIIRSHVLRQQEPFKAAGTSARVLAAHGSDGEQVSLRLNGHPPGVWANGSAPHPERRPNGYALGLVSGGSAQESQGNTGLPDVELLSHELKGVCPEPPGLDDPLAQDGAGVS

Row | Structure (SMILES) | IC50 (human A2A receptors; read-out: A2A (Category)) [nM] | IC50 (human A2B receptors; read-out: A2B (Category)) [nM] | IC50 (human A2A receptors; read-out: Functional A2A receptor activity, HEK293, cAMP, IC50) [nM] | IC50 (human A2B receptors; read-out: Functional A2B receptor activity HEK293, cAMP IC50) [nM]
1 | COCC1CCCN1C(=O)c1cc2c(cn1)c(-c1cnc3c(F)cc(F)cn13)nn2CC(F)(F)F (stereo not shown) [Compound 149, [3-(6,8-Difluoro-imidazo[1,2-a]pyridin-3-yl)-1-(2,2,2-trifluoro-ethyl)-1H-pyrazolo[4,3-c]pyridin-6-yl]-(2-methoxymethyl-pyrrolidin-1-yl)-methanone] | < 100 | < 1000 | – | –
2 | CN(CCNC(=O)OC(C)(C)C)C(=O)c1cc2c(cn1)c(-c1cnc3c(F)cc(F)cn13)nn2CC(F)(F)F [Compound 197, (2-{[3-(6,8-Difluoro-imidazo[1,2-a]pyridin-3-yl)-1-(2,2,2-trifluoro-ethyl)-1H-pyrazolo[4,3-c]pyridine-6-carbonyl]-methyl-amino}-ethyl)-carbamic Acid Tert-Butyl Ester] | < 100 | < 1000 | – | –
3 | N#CCn1nc(-c2cnc3ccc(F)cn23)c2cnc(C(=O)N3CCCCCC3)cc21 [Compound 7, [6-(Azepane-1-carbonyl)-3-(6-fluoro-imidazo[1,2-a]pyridin-3-yl)-pyrazolo[4,3-c]pyridin-1-yl]-acetonitrile] | < 100 | < 1000 | – | –
4 | CS(=O)(=O)Cn1nc(-c2cnc3c(F)cc(F)cn23)c2cnc(C(=O)N3[C@@H]4CC[C@H]3C[C@@H](O)C4)cc21 [Compound 25, [3-(6,8-Difluoro-imidazo[1,2-a]pyridin-3-yl)-1-methanesulfonylmethyl-1H-pyrazolo[4,3-c]pyridin-6-yl]-(3-endo-hydroxy-8-aza-bicyclo[3.2.1]oct-8-yl)-methanone] | < 100 | < 100 | – | –
5 | O=C(c1ccc2c(-c3cnc4ccc(Cl)cn34)nn(CC(F)(F)F)c2c1)N1CCCCCC1 [analogue to No. 48, reference compound] | – | – | < 100 | > 1000
6 | NC(=O)Cn1nc(-c2coc3ccccc23)c2cnc(C(=O)N3CCCOCC3)cc21 [Compound 105, 2-[3-Benzofuran-3-yl-6-(1,4-oxazepane-4-carbonyl)-pyrazolo[4,3-c]pyridin-1-yl]-acetamide] | < 100 | < 1000 | – | –
7 | O=C(c1cc2c(cn1)c(-c1cnc3c(F)cccn13)nn2CC(F)(F)F)N1CCCCCC1 [Compound 62, Azepan-1-yl-[3-(8-fluoro-imidazo[1,2-a]pyridin-3-yl)-1-(2,2,2-trifluoro-ethyl)-1H-pyrazolo[4,3-c]pyridin-6-yl]-methanone] | < 100 | < 100 | – | –
8 | O=C(c1cc2c(cn1)c(-c1coc3ccc(F)cc13)nn2CC(F)(F)F)N1CCCC(O)CC1 (stereo not shown) [Compound 122, [3-(5-fluorobenzofuran-3-yl)-1-(2,2,2-trifluoroethyl)pyrazolo[4,3-c]pyridin-6-yl]-(4-hydroxyazepan-1-yl)methanone] | < 100 | < 100 | – | –
9 | O=C(c1cc2c(cn1)c(-c1cnc3ccc(F)cn13)nn2CC(F)(F)F)N1[C@@H]2CC[C@H]1C[C@@H](O)C2 [Compound 86, [3-(6-fluoroimidazo[1,2-a]pyridin-3-yl)-1-(2,2,2-trifluoroethyl)pyrazolo[4,3-c]pyridin-6-yl]-(3-endo-hydroxy-8-azabicyclo[3.2.1]octan-8-yl)methanone] | < 100 | < 100 | – | –
10 | CS(=O)(=O)Cn1nc(-c2cnn3ccccc23)c2cnc(C(=O)N3CC4CCC(C3)O4)cc21 [Compound 108, (1-Methanesulfonylmethyl-3-pyrazolo[1,5-a]pyridine-3-yl-1H-pyrazolo[4,3-c]pyridine-6-yl)-(8-oxa-3-aza-bicyclo[3.2.1]oct-3-yl)-methanone] | < 100 | < 1000 | – | –
11 | O=C(c1cc2c(cn1)c(-c1cnc3c(F)cc(F)cn13)nn2CC(F)(F)F)N1CCCCCO1 [Compound 191, [3-(6,8-Difluoro-imidazo[1,2-a]pyridin-3-yl)-1-(2,2,2-trifluoro-ethyl)-1H-pyrazolo[4,3-c]pyridin-6-yl]-[1,2]oxazepan-2-yl-methanone] | < 100 | < 1000 | – | –
12 | CCN(C(=O)c1cc2c(cn1)c(-c1coc3ccccc13)nn2CC(F)(F)F)C1CCCCC1 [Compound 235, 3-(benzofuran-3-yl)-N-cyclohexyl-N-ethyl-1-(2,2,2-trifluoroethyl)pyrazolo[4,3-c]pyridine-6-carboxamide] | < 100 | < 1000 | – | –
13 | O=C(c1cc2c(cn1)c(-c1c[nH]c3ccccc13)nn2CC(F)(F)F)N1[C@@H]2CC[C@H]1C[C@@H](O)C2 [Compound 112, (3-endo-hydroxy-8-azabicyclo[3.2.1]octan-8-yl)-[3-(1H-indol-3-yl)-1-(2,2,2-trifluoroethyl)pyrazolo[4,3-c]pyridin-6-yl]methanone] | < 100 | < 100 | – | –

The remaining lines, values ahead:

Row | IC50 (human A2A receptors; read-out: A2A (Category)) [nM] | IC50 (human A2B receptors; read-out: A2B (Category)) [nM] | IC50 (human A2A receptors; read-out: Functional A2A receptor activity, HEK293, cAMP, IC50) [nM] | IC50 (human A2B receptors; read-out: Functional A2B receptor activity HEK293, cAMP IC50) [nM] | Structure (SMILES)
14 | < 100 | < 1000 | – | – | O=C(c1cc2c(cn1)c(-c1cnc3c(F)cc(F)cn13)nn2CC(F)(F)F)N1CC2COC(C2)C1 (stereo not shown) [Compound 199, [3-(6,8-Difluoro-imidazo[1,2-a]pyridin-3-yl)-1-(2,2,2-trifluoro-ethyl)-1H-pyrazolo[4,3-c]pyridin-6-yl]-(6-oxa-3-aza-bicyclo[3.2.1]oct-3-yl)-methanone]
15 | < 100 | < 100 | – | – | CSCn1nc(-c2cnc3c(F)cc(F)cn23)c2cnc(C(=O)N3CC4CCC(C4)C3)cc21 [Compound 14, (3-Aza-bicyclo[3.2.1]oct-3-yl)-[3-(6,8-difluoro-imidazo[1,2-a]pyridin-3-yl)-1-methylsulfanylmethyl-1H-pyrazolo[4,3-c]pyridin-6-yl]-methanone]
16 | < 100 | < 100 | – | – | O=C(c1cc2c(cn1)c(-c1coc3ccccc13)nn2CC(F)(F)F)N1CC2CCC(C1)O2 [Compound 100, [3-Benzofuran-3-yl-1-(2,2,2-trifluoro-ethyl)-1H-pyrazolo[4,3-c]pyridin-6-yl]-(8-oxa-3-aza-bicyclo[3.2.1]oct-3-yl)-methanone]
17 | < 100 | < 1000 | – | – | O=C(c1cc2c(cn1)c(-c1coc3ccccc13)nn2CC(F)(F)F)N(C1CC1)C1CC1 [Compound 232, 3-(benzofuran-3-yl)-N,N-di(cyclopropyl)-1-(2,2,2-trifluoroethyl)-pyrazolo[4,3-c]pyridine-6-carboxamide]
18 | < 100 | < 1000 | – | – | O=C(c1cc2c(cn1)c(-c1cnc3c(F)cc(F)cn13)nn2CC(F)(F)F)N1CCOCC(F)(F)C1 [Compound 185, [3-(6,8-Difluoro-imidazo[1,2-a]pyridin-3-yl)-1-(2,2,2-trifluoro-ethyl)-1H-pyrazolo[4,3-c]pyridin-6-yl]-(6,6-difluoro-1,4-oxazepan-4-yl)-methanone]
19 | < 100 | < 1000 | – | – | [2H]C1([2H])COCCN(C(=O)c2cc3c(cn2)c(-c2c[nH]c4ccccc24)nn3CC(F)(F)F)C1 [Example 242, (6,6-dideuterio-1,4-oxazepan-4-yl)-[3-(1H-indol-3-yl)-1-(2,2,2-trifluoroethyl)pyrazolo[4,3-c]pyridin-6-yl]methanone]
20 | < 100 | < 100 | – | – | CS(=O)(=O)Cn1nc(-c2cnc3ccc(F)cn23)c2cnc(C(=O)N3CCCCCC3)cc21 [Compound 20, Azepan-1-yl-[3-(6-fluoro-imidazo[1,2-a]pyridin-3-yl)-1-methanesulfonylmethyl-1H-pyrazolo[4,3-c]pyridin-6-yl]-methanone]
21 | < 100 | < 1000 | – | – | O=C(c1cc2c(cn1)c(-c1cnc3ccccn13)nn2CC(F)(F)F)N1CCCCCC1 [Compound 55, Azepan-1-yl-[3-imidazo[1,2-a]pyridin-3-yl-1-(2,2,2-trifluoro-ethyl)-1H-pyrazolo[4,3-c]pyridin-6-yl]-methanone]
22 | < 100 | < 100 | – | – | [2H]C1([2H])COCCN(C(=O)c2cc3c(cn2)c(-c2coc4ccccc24)nn3CC(F)(F)F)C1 [Compound 229, [3-(benzofuran-3-yl)-1-(2,2,2-trifluoroethyl)pyrazolo[4,3-c]pyridin-6-yl]-(6,6-dideuterio-1,4-oxazepan-4-yl)methanone]
23 | < 100 | < 1000 | – | – | CC(C)C1CC(O)CCN1C(=O)c1cc2c(cn1)c(-c1cnc3c(F)cc(F)cn13)nn2CC(F)(F)F (stereo not shown) [Compound 141, [3-(6,8-Difluoro-imidazo[1,2-a]pyridin-3-yl)-1-(2,2,2-trifluoro-ethyl)-1H-pyrazolo[4,3-c]pyridin-6-yl]-(4-hydroxy-2-isopropyl-piperidin-1-yl)-methanone]
24 | < 100 | < 100 | – | – | CS(=O)(=O)Cn1nc(-c2coc3ccccc23)c2cnc(C(=O)N3CCC(O)CC3)cc21 [Compound 36, (3-Benzofuran-3-yl-1-methanesulfonylmethyl-1H-pyrazolo[4,3-c]pyridin-6-yl)-(4-hydroxy-piperidin-1-yl)-methanone]
25 | < 100 | < 100 | – | – | CS(=O)(=O)Cn1nc(-c2coc3ccc(F)cc23)c2cnc(C(=O)N3CCCOCC3)cc21 [Compound 110, [3-(5-fluorobenzofuran-3-yl)-1-(methylsulfonylmethyl)pyrazolo[4,3-c]pyridin-6-yl]-(1,4-oxazepan-4-yl)methanone]
26 | < 100 | < 1000 | – | – | C[C@@H]1COC[C@H](C)N1C(=O)c1cc2c(cn1)c(-c1cnc3c(F)cc(F)cn13)nn2CC(F)(F)F [Compound 183, Cis-[3-(6,8-Difluoro-imidazo[1,2-a]pyridin-3-yl)-1-(2,2,2-trifluoro-ethyl)-1H-pyrazolo[4,3-c]pyridin-6-yl]-(3,5-dimethyl-morpholin-4-yl)-methanone]
